Assay results taken from US6759429B2, “Pyrrole derivatives” (Sumitomo Pharmaceuticals Co., Ltd., priority 2000, dated 2004).

Tested on: TGF-β
Experiment: Effects on the extracellular matrix production by TGF-β (proteoglycan production in fibroblast)
Type: cell-based
Details: Rattus norvegicus, NRK-49F cells, 3 ng/ml TGF-β, 24 h, [35S]-proteoglycan radioactivity, read-out: TGF-β inhibitory rate (%)
Description: Effects on the Extracellular Matrix Production by TGF-β The effect of the compounds of Examples on the production of proteoglycan when TGF-β was added to fibroblast was evaluated. NRK-49F cells (rat fibroblast) were cultured in Dulbecco's Modified Eagle Medium (DMEM: manufactured by GIBCO) containing 10% bovine serum, and used in this experiment. The cells were put into a 96-well plate in an amount of 2.5×10^4 cells/100 μl/well. On the next day, the medium in the plate was exchanged to the DMEM medium containing 3 ng/ml of TGF-β (manufactured by Nacalai Tesque, Inc.), 0.5 μCi/well of [^35S]-Na2SO4, and a test compound. […] The gel after electrophoresis was dried with a gel drier, and exposed to an imaging plate, which was analyzed with […] (manufactured by Fuji Photo Film). The radioactivity of proteoglycan to be electrophoresed was measured, and the TGF-β inhibitory rate was calculated by the following equation. TGF-β Inhibitory rate (%)=(A−B)×100/(A−C) A: Radioactivity in the presence of TGF-β without a test compound B: Radioactivity in the presence of TGF-β and a test compound C: Radioactivity in the absence of TGF-β and a test compound The TGF-β inhibitory rates (%) of the test compound at concentrations of 3 μM and 10 μM are shown in Table 1.

COC(=O)c1cc(Cl)ccc1/C=C/Cn1cccc1C(=O)c1ccc(O)cc1 [Example 103]
inhibition at 3 µM (test compound 3 μM): 55%
inhibition at 10 µM (test compound 10 μM): 90%
